The values that follow come from ChEMBL document CHEMBL5335773, “Synthesis and structure-activity relationship of new nicotinamide phosphoribosyltransferase inhibitors with antitumor activity on solid and haematological cancer” (Eur J Med Chem, 2023).

In general, IC50 refers to the midpoint of a concentration-inhibition curve.

The test system of test [1] is MIA PaCa-2. Nature of the test: cells. The settings on record: Homo sapiens, MIA PaCa-2, 72 h.
The target in test [2] is Nicotinamide phosphoribosyltransferase (Homo sapiens, UniProt P43490). Nature of the test: Inhibition of full-length recombinant human NAMPT (2 to 491 residues) expressed in Escherichia coli using NAM as substrate preincubated for 5 mins followed by substrate addition measured after 15 mins by fluorescence based assay.
Nicotinamide phosphoribosyltransferase, sequence (P43490 whole entry, the tested form may be a part): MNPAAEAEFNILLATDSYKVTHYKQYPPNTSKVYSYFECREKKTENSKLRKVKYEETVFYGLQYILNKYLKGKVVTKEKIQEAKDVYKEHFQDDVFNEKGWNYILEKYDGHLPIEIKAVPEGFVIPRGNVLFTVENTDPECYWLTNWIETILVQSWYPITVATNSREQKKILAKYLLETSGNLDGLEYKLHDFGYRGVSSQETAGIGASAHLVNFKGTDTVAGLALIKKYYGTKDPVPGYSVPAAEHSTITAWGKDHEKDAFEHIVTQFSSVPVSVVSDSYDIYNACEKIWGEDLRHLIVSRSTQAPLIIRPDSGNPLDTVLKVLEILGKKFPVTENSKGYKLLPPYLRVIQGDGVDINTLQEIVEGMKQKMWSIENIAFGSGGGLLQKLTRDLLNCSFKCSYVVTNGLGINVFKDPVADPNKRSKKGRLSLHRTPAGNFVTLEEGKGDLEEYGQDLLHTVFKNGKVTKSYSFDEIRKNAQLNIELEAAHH
The next test deals with ML-2. Nature of the test: Cytotoxicity against human ML-2 cells assessed as inhibition of cell viability at 72 hrs by SRB assay. Type of test: functional, cell-based. The settings on record: ML-2, 72 h. In general terms: In SRB staining, fixed cells bind dye roughly in proportion to their protein.
A further test relates to RPMI-8226. As to the kind of experiment: Cytotoxicity against human RPMI-8226 cells assessed as inhibition of cell viability at 72 hrs by SRB assay. Type of test: functional, cell-based. As to conditions: RPMI-8226, 72 h.
The test system of test [3] is MIA PaCa-2. Nature of the test: cells. The settings on record: Homo sapiens, MIA PaCa-2, 24 h.
A further test deals with NAMALVA. Nature of the test: Cytotoxicity against human NAMALVA cells assessed as inhibition of cell viability at 72 hrs by SRB assay. Format: functional, cell-based.
The test system of another test is NB-4. Nature of the test: Cytotoxicity against human NB4 cells assessed as inhibition of cell viability at 72 hrs by SRB assay. As to conditions: NB-4, 72 h. Format: functional, cell-based.
For another test, the system named is Jurkat. Nature of the test: Cytotoxicity against human Jurkat cells assessed as inhibition of cell viability at 72 hrs by SRB assay. Type of test: functional, cell-based.

Consider `O=C(CCCCCCNC(=S)Nc1cccnc1)N(Cc1ccco1)C1CCCC1`, for which, in the test on MIA PaCa-2 [1], 153 nM corresponded to half-maximal inhibition (IC50).
Turning to `O=S(=O)(CCCCCCNC(=S)Nc1cccnc1)N(Cc1ccco1)C1CCCC1`, the half-maximal inhibitory concentration (IC50) was found to be 69.1 nM in test [2]; 16.4 nM in the test with MIA PaCa-2 [1]; 3.1 nM in the test with ML-2; 20.1 nM in the test with RPMI-8226; 0.43 nM in the test on MIA PaCa-2 [3]; 4.23 nM with NAMALVA.
As for `O=C(CCCCCCCn1cc(-c2cccnc2)nn1)n1cccc1`, in the test with MIA PaCa-2 [1], half-maximal inhibition (IC50) was put at 494 nM.
In the test with MIA PaCa-2 [1], `COc1ccc2[nH]c(C(=O)N3CCC(CCCCn4cc(-c5cccnc5)nn4)CC3)cc2c1` registered an IC50 of 860 nM.
In the test on MIA PaCa-2 [1], `O=C(Nc1ccc(C(=O)N(Cc2ccco2)C2CCCC2)cc1)N1Cc2ccccc2C1` displayed an IC50 of more than 1000 nM.
In turn, `N#C/N=C(\NCCCCCCCCNC(=O)c1cc2ccccc2[nH]1)Nc1cccnc1` came in with a half-inhibitory concentration (IC50) with MIA PaCa-2 [1] of 81 nM.
Regarding `N#C/N=C(\NCCCCCCC(=O)N(Cc1ccc(Cl)cc1)Cc1ccco1)N1Cc2ccccc2C1`, in the test with MIA PaCa-2 [1], the IC50 is more than 1000 nM.
Turning to `O=C(NCCCCCCCCNC(=S)Nc1cccnc1)c1cc2ccccc2[nH]1`, half-maximal inhibition with MIA PaCa-2 [1] (IC50) was put at 605 nM.
As to `N#C/N=C(\NCCCCCCS(=O)(=O)N(Cc1ccco1)C1CCCC1)Nc1ccccc1`, the results for the IC50 in the test on MIA PaCa-2 [1] and in the test on MIA PaCa-2 [3] were 176 nM and 4.7 nM, respectively.
In the test with MIA PaCa-2 [1], `O=C(NCc1ccco1)c1ccc(NC(=O)N2Cc3ccccc3C2)cc1` displayed an IC50 of more than 1000 nM.
On the same count and under the same terms, to `O=C(c1cc2ccccc2[nH]1)N1CCC(CCCCn2cc(-c3cccnc3)nn2)CC1` belongs 727 nM.
For `N#C/N=C(\NCCCCCCCC(=O)NCc1ccco1)Nc1ccncc1`, the half-maximal inhibitory concentration (IC50) with MIA PaCa-2 [1] is more than 1000 nM.
In the test on MIA PaCa-2 [1], `O=C(CCCCCCCNC(=S)Nc1cccnc1)n1cccc1` gave a half-maximal inhibitory concentration (IC50) of 854 nM.
Regarding `N#C/N=C(\NCCCCCC(=O)N(Cc1ccco1)c1ccc(Cl)cc1)Nc1ccncc1`, the IC50 with MIA PaCa-2 [1] was 6.3 nM; in the test with MIA PaCa-2 [3], 0.5 nM.
`O=C(CCCCCCCn1cc(-c2cccnc2)nn1)NCc1ccco1`: the IC50 in the test with MIA PaCa-2 [1] was more than 1000 nM.
On to `N#C/N=C(\NCCCCCCC(=O)N(Cc1ccco1)c1ccc([N+](=O)[O-])cc1)Nc1ccncc1`, for which the concentration for half-maximal inhibition (IC50) worked out at 2.1 nM with MIA PaCa-2 [1]; 0.32 nM in the test on ML-2; 2.13 nM with RPMI-8226; 0.14 nM with MIA PaCa-2 [3]; 1.39 nM in the test on NAMALVA.
With `N#C/N=C(\NCCCCC1CCN(C(=O)c2cc3ccccc3[nH]2)CC1)Nc1cccnc1`, the midpoint of inhibition with MIA PaCa-2 [1], the IC50, lay at 113 nM.
`N#C/N=C(\NCCCCCCC(=O)N(CCCN1CCOCC1)Cc1ccco1)Nc1ccncc1`: the IC50 in the test on MIA PaCa-2 [1] was 3 nM; with MIA PaCa-2 [3], 1.43 nM.
As to `N#C/N=C(\NCCCCCCC(=O)N(CCCN1CCCC1)Cc1ccco1)Nc1ccncc1`, the figures for the IC50 in the test with MIA PaCa-2 [1] and with MIA PaCa-2 [3] were 4.5 nM and 2 nM, respectively.
In the test on MIA PaCa-2 [1], `N#C/N=C(\NCCCCCCC(=O)N(CCCN1CCOCC1)Cc1ccco1)N1Cc2ccccc2C1` gave a half-inhibitory concentration (IC50) of more than 1000 nM.
`CCOC(=O)c1ccc(N/C(=N/C#N)NCCCCCCS(=O)(=O)N(Cc2ccco2)C2CCCC2)cc1` came in with an IC50 with MIA PaCa-2 [1] of 738 nM.
Same read-out and setting: the result for `N#C/N=C(\NCCCCCCC(=O)N(Cc1ccco1)C1CCCC1)N1Cc2ccccc2C1` reads more than 1000 nM; that for `O=C(c1cc2ccccc2[nH]1)N1CCC(CCCCNC(=S)Nc2cccnc2)CC1`, more than 1000 nM.
Regarding `N#C/N=C(\NCCCCCCn1cc(CN(CCCN2CCOCC2)Cc2ccco2)nn1)Nc1ccncc1`, the IC50 in the test with MIA PaCa-2 [1] turned out to be 25.8 nM; in the test with MIA PaCa-2 [3], 2.36 nM.
The compound `N#C/N=C(\NCCCCCCS(=O)(=O)N(Cc1ccco1)C1CCCC1)Nc1ccc(N=[N+]=[N-])cc1` displayed an IC50 in the test with MIA PaCa-2 [1] of 1000 nM.
As to `O=C(CCCCCCCNC(=S)Nc1cccnc1)NCc1ccco1`, the IC50 in the test with MIA PaCa-2 [1] was more than 1000 nM.
As to `N#C/N=C(\NCCCCCCC(=O)N(Cc1ccco1)c1ccc(Cl)cc1)Nc1ccncc1`, the figures for the IC50 in the test with MIA PaCa-2 [1] and in the test with MIA PaCa-2 [3] were 1.7 nM and 0.17 nM, respectively.
In the case of `N#C/N=C(\NCCCCCC(=O)N(Cc1ccco1)C1CCCC1)Nc1ccncc1`, the half-maximal inhibitory concentration (IC50) in the test with MIA PaCa-2 [1] was found to be 3 nM; in the test on ML-2, 0.36 nM; with RPMI-8226 it was 1.9 nM; in the test with MIA PaCa-2 [3] it was 0.2 nM; with NAMALVA, 1.77 nM.
Regarding `O=C(NCCCCCCCCn1cc(-c2cccnc2)nn1)c1cc2ccccc2[nH]1`, the IC50 in the test with MIA PaCa-2 [1] was 549 nM.
As to `N#C/N=C(\NCCCCCCS(=O)(=O)N(CCCN1CCOCC1)Cc1ccco1)Nc1ccncc1`, the 50% inhibitory concentration (IC50) with MIA PaCa-2 [1] was determined as 2.26 nM; with MIA PaCa-2 [3], 1.5 nM.
`N#C/N=C(\NCCCCCCC(=O)N(Cc1ccco1)C1CCCC1)Nc1ccccc1` had a half-maximal inhibitory concentration (IC50) in the test with MIA PaCa-2 [1] of more than 1000 nM.
In the case of `N#C/N=C(\NCCCCCC(=O)N(CCCN1CCOCC1)Cc1ccco1)Nc1ccncc1`, the IC50 turned out to be 16.3 nM with MIA PaCa-2 [1] and 11.2 nM with MIA PaCa-2 [3].
For the compound `O=C(/C=C/c1cccnc1)NCCCCC1CCN(C(=O)c2ccccc2)CC1` [DAPORINAD], the 50% inhibitory concentration (IC50) in the test with MIA PaCa-2 [1] was found to be 2.4 nM; in the test with NB-4 it was 2 nM; in the test on ML-2 it was 0.24 nM; in the test with RPMI-8226 it was 0.76 nM; with MIA PaCa-2 [3], 0.34 nM; in the test with NAMALVA, 0.37 nM. In addition, the half-inhibitory concentration (IC50) in the test with Jurkat was found to be 0.73 nM.
